In US20140243396A1, “METHOD OF TREATING MUCOEPIDERMOID CARCINOMA” (DANA-FARBER CANCER INSTITUTE, INC., priority 2011, published 2014):

Columns and labels:
H3118 cells = experiment: cAMP measurement, enzyme immunoassay; assay type: cell-based; settings: compared to DMSO control
From the text: (§1) FIG. 5 illustrates inhibition of PDE4B increased cellular cAMP levels and inhibited PI3-kinase signaling. […] Columns: mean, bars: SD (n=3). B. Knock-down of PDE4B increased MEC cell cAMP level. n=3. **p<0.01, compared to control cells. Columns: mean, bars: SD (n=3). C. […] The same blot was stripped and probed with AKT or β-actin antibody. Image was cropped and auto-leveled by Photoshop. A representative of three independent experiments.
(§2) Cells were trypsinized and washed once with 1×PBS after treatment. The cell pellet was re-suspended in 100 μl of 0.1M HCL. cAMP amount was measure by Direct Cyclic AMP Enzyme Immunoassay Kit (#900-066, Assay Designs, Inc., Ann Arbor, Mich.) according to the manufacturer's protocol. The acetylated version of the kit was used.

HSY cells = experiment: cAMP measurement, enzyme immunoassay; assay type: cell-based; settings: inhibitors
From the text: as §1, §2

[1] = in vivo; cited from earlier work
[2] = a few small 2003 studies; cited from earlier work

Structure (SMILES)	increase of cAMP levels (H3118 cells) [fold]	effect on cAMP levels (in words) (HSY cells)	adverse effects frequency [1] [%]	effective in treating renal colic [2] [%]
C=C[C@@]1(C)CC(=O)[C@]2(O)[C@@]3(C)[C@@H](O)CCC(C)(C)[C@@H]3[C@H](O)[C@H](OC(C)=O)[C@@]2(C)O1 [forskolin]	4	no effect	–	–
CCOc1ccc(/C=C2\NCCc3cc(OCC)c(OCC)cc32)cc1OCC [Drotaverine]	–	–	0.9	~80
